# Experimental data reported in patent US20200375943A1 (priority 2019, published 2020).
# Like-named read-outs stand apart in the source and are kept apart here.
# Legend:
# SVCT2 [1] = target: T1, SVCT2 (Homo sapiens, UniProt Q9UGH3); parameters: endogenous in cells; host or cells: HTR-8/SVneo human trophoblast cell line; conditions: cited from earlier work; for inhibitory action for LAA transporter SVCT2: HTR-8/SVneo cells; for uptake of LAA via SVCT2: trophoblast cells
# Target sequence in this assay (Q9UGH3 whole entry): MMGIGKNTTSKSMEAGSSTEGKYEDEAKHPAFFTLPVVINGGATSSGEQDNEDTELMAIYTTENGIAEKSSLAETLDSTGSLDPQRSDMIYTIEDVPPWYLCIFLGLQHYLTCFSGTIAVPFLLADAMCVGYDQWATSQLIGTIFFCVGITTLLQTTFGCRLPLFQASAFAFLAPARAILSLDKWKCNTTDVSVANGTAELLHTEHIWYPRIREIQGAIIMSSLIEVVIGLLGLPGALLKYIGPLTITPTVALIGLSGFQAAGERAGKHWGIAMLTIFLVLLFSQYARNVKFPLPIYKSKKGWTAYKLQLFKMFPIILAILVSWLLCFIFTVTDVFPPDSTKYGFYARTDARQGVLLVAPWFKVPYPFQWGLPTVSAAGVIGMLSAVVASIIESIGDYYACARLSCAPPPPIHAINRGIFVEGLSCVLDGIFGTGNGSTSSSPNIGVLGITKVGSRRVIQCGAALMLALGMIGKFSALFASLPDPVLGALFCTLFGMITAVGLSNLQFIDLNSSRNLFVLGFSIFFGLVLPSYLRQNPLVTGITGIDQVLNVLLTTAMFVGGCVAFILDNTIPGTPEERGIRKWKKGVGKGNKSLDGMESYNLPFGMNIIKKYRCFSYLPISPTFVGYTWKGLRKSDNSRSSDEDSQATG
# human leukemic cells = conditions: bone marrows from 259 patients; cited from earlier work
# sarcoma tumors = conditions: oral gavage, cited from earlier work
# [2] = cited from earlier work
# leukemic blast cells = experiment: Phase I/II clinical trial of LAA depletion alternating with LAA supplementation; assay type: in vivo, human
# Description: No. 12, Blood. 2000 (see Reference 9).
# That is, in the example, a leukemia patient first received a chemotherapy and subsequently received the LAA supplementation. […] The noted sharp decline is much more precipitous than what can be observed with chemotherapy.
# In the example, the significant improvement is also noted that there was a total of 8 out of 16 patients in the Phase I/II clinical trial responding (p=0.007).
# SVCT2 [3] = target: T1, SVCT2; parameters: endogenous in cells; host or cells: bone marrow stromal cells (BMSCs); conditions: 600 uM, BMSCs; cited from earlier work
# Target sequence in this assay (Q9UGH3 whole entry, species assumed): as the sequence (Q9UGH3 whole entry) above
# SVCT2 [4] = conditions: 200 uM, cortical or cerebellar neurons; cited from earlier work
# [5] = humans, oral; cited from earlier work
# SVCT1(h) = target: T2, SVCT1(h) (Homo sapiens, UniProt Q9UHI7); conditions: 50 uM, ascorbate 10-400 uM; cited from earlier work
# T2 construct: expressed in transfected cells
# T2 sequence (Q9UHI7 whole entry): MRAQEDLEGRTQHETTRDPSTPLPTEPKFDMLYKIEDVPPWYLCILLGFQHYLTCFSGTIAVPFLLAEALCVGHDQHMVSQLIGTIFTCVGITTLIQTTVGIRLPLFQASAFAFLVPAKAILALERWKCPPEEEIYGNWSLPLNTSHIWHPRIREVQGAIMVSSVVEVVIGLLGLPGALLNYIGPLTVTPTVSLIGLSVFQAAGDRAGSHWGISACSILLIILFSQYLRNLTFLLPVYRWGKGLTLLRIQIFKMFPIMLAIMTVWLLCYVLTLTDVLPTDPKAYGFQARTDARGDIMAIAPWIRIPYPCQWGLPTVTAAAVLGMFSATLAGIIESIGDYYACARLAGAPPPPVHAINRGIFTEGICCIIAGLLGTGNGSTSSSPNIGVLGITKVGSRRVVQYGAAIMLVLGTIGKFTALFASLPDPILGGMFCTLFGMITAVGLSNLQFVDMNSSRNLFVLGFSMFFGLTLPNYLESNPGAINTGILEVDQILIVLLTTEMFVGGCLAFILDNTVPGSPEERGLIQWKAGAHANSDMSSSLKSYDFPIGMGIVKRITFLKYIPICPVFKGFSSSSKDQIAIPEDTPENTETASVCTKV
compound,measurement,setting,value
O=c1c(-c2ccc(O)cc2)coc2cc(O)cc(O)c12 [genistein],inhibitory action for LAA transporter SVCT2,SVCT2 [1],very strong inhibitory action
O=C(O)Cc1ccccc1Nc1c(Cl)cccc1Cl [diclofenac],inhibitory action for LAA transporter SVCT2,SVCT2 [1],very strong inhibitory action
same,uptake of LAA via SVCT2,SVCT2 [1],inhibit the uptake of LAA
"O=C1O[C@H]([C@@H](O)CO)C(O)=C1O [LAA, L-ascorbic acid]",patients whose leukemic cells had the requirement of LAA for growth,human leukemic cells,~50%
same,"complete tumor regression, animals","sarcoma tumors; 0.3 mg/kg/day, up to 24 weeks",55%
same,tumor growth,sarcoma tumors; 10 mg/kg/day,tumor inhibition but no regression
same,tumor growth,sarcoma tumors; 1 g/kg/day,grew without sign of retardation
same,peak concentrations without significant adverse effects,[2]; intravenous infusion,over 10 mMol
same,blood levels,"[2]; oral, up to 180 gram per day in divided doses",≤ 200 µM
same,D-dimer test for massive cell lysis,leukemic blast cells; LAA supplementation after chemotherapy (FIG. 3B),sharp increase
same,patients responding,"leukemic blast cells; Phase I/II clinical trial, 16 evaluated patients, p=0.007",8 out of 16
same,leukemic blast cells in peripheral blood,"leukemic blast cells; after 10 days of LAA supplementation, relapse after cytotoxic chemotherapy (FIG. 3A)",sharp decline
same,frequency of platelet transfusion,"leukemic blast cells; alternation of LAA supplementation and depletion, same patient (FIG. 2B)",marked reduction in the frequency of platelet transfusion
same,leukemic blast cell number (peripheral blood and bone marrow),"leukemic blast cells; during supplementation of LAA phase, intravenous, one patient (FIG. 2A)",decline in leukemic blast cell number
same,spleen size,"leukemic blast cells; during supplementation of LAA phase, one patient (FIG. 2A)",decline in spleen size
COc1ccc2c(c1)c(CC(=O)O)c(C)n2C(=O)c1ccc(Cl)cc1 [indomethacin],uptake of LAA via SVCT2,SVCT2 [1],inhibit the uptake of LAA
"Cl.N=c1c[n+](N2CCOCC2)[n-]o1 [SIN-1, 3-(4-Morpholinyl) sydnonimine hydrochloride]",decrease in LAA uptake,SVCT2 [3],up to 40%
O=c1c(O)c(-c2ccc(O)c(O)c2)oc2cc(O)cc(O)c12 [quercetin],decrease of LAA transport SVCT2,SVCT2 [4],80%
same,dose administered orally without side effects,[5],4 g
same,inhibition of LAA transporter SVCT1(h),SVCT1(h),about 80%
same,inhibitory action for LAA transporter SVCT2,SVCT2 [1],very strong inhibitory action
C[C@]12CC[C@@H]3c4ccc(O)cc4CC[C@H]3[C@@H]1CC[C@@H]2O [17β-estadiol],inhibitory action for LAA transporter SVCT2,SVCT2 [1],very strong inhibitory action
